For assay [1], the system named is Staphylococcus aureus. Nature of the assay: Inhibition of biofilm in Staphylococcus aureus ATCC 29213 at 0.5 times MIC measured after 12 hrs by crystal violet staining based analysis relative to control. The assay is classed as functional.
Assay [2] deals with Staphylococcus aureus. Nature of the assay: Antibacterial activity against methicillin-resistant Staphylococcus aureus NRS 129 assessed as reduction in bacterial growth measured after 18 to 24 hrs by broth microdilution method. The assay is classed as functional. The following applies: time 18-24 hrs.
Assay [3] has as its system Staphylococcus aureus. The assay can be described thus: Antibacterial activity against methicillin-resistant Staphylococcus aureus NRS 119 assessed as reduction in bacterial growth measured after 18 to 24 hrs by broth microdilution method. The assay is classed as functional. The following applies: time 18-24 hrs.
Assay [4] relates to Staphylococcus aureus. The assay can be described thus: Antibacterial activity against methicillin-resistant Staphylococcus aureus NRS 193 assessed as reduction in bacterial growth measured after 18 to 24 hrs by broth microdilution method. The following applies: time 18-24 hrs. It counts as functional.
Assay [5] relates to Acinetobacter baumannii. The assay can be described thus: Antibacterial activity against Acinetobacter baumannii BAA 1605 assessed as reduction in bacterial growth measured after 18 to 24 hrs by broth microdilution method. The settings on record: time 18-24 hrs. The assay is classed as functional.
Assay [6] relates to Klebsiella pneumoniae. The assay can be described thus: Antibacterial activity against Klebsiella pneumoniae BAA 1705 assessed as reduction in bacterial growth measured after 18 to 24 hrs by broth microdilution method. The settings on record: time 18-24 hrs. It counts as functional.
For assay [7], the system named is Staphylococcus aureus. The assay can be described thus: Antibacterial activity against methicillin-resistant Staphylococcus aureus NRS 186 assessed as reduction in bacterial growth measured after 18 to 24 hrs by broth microdilution method. The assay is classed as functional. The settings on record: time 18-24 hrs.
For assay [8], the system named is Staphylococcus aureus. Nature of the assay: Inhibition of biofilm in Staphylococcus aureus ATCC 29213 at 2 ug/ml measured after 12 hrs by crystal violet staining based analysis. The following applies: dose 2.0 µg/ml. It counts as functional, organism-based.
The subject of assay [9] is Staphylococcus aureus. Nature of the assay: Inhibition of biofilm in Staphylococcus aureus ATCC 29213 at 2 times MIC measured after 12 hrs by crystal violet staining based analysis relative to control. It counts as functional.
Assay [10] concerns Staphylococcus aureus. The assay can be described thus: Antibacterial activity against vacomycin-resistant Staphylococcus aureus VRS 4 assessed as reduction in bacterial growth measured after 18 to 24 hrs by broth microdilution method. The assay is classed as functional. The following applies: time 18-24 hrs.
Assay [11] relates to Escherichia coli. Nature of the assay: Antibacterial activity against Escherichia coli ATCC 25922 assessed as reduction in bacterial growth measured after 18 to 24 hrs by broth microdilution method. The assay is classed as functional. The following applies: time 18-24 hrs.
Assay [12] deals with Staphylococcus aureus. Nature of the assay: Antibacterial activity against methicillin-resistant Staphylococcus aureus NRS 192 assessed as reduction in bacterial growth measured after 18 to 24 hrs by broth microdilution method. It counts as functional. The following applies: time 18-24 hrs.
Assay [13] concerns Staphylococcus aureus. The assay can be described thus: Antibacterial activity against vacomycin-resistant Staphylococcus aureus VRS 12 assessed as reduction in bacterial growth measured after 18 to 24 hrs by broth microdilution method. The assay is classed as functional. The settings on record: time 18-24 hrs.
The subject of assay [14] is Staphylococcus aureus. The assay can be described thus: Inhibition of biofilm in Staphylococcus aureus ATCC 29213 at 1 times MIC measured after 12 hrs by crystal violet staining based analysis relative to control. The assay is classed as functional.
The test system of assay [15] is Bacillus subtilis. The assay can be described thus: Antibacterial activity against Bacillus subtilis IITKSM1 assessed as reduction in bacterial growth measured after 18 to 24 hrs by broth microdilution method. It counts as functional. The following applies: time 18-24 hrs.
The test system of assay [16] is Pseudomonas aeruginosa. Nature of the assay: Antibacterial activity against Pseudomonas aeruginosa ATCC 27853 assessed as reduction in bacterial growth measured after 18 to 24 hrs by broth microdilution method. The settings on record: time 18-24 hrs. The assay is classed as functional.
Assay [17] relates to Staphylococcus aureus. The assay can be described thus: Antibacterial activity against methicillin-sensitive Staphylococcus aureus ATCC 29213 assessed as reduction in bacterial growth measured after 18 to 24 hrs by broth microdilution method. The assay is classed as functional. The following applies: time 18-24 hrs.
For assay [18], the system named is Staphylococcus aureus. The assay can be described thus: Antibacterial activity against vacomycin-resistant Staphylococcus aureus VRS 1 assessed as reduction in bacterial growth measured after 18 to 24 hrs by broth microdilution method. The settings on record: time 18-24 hrs. It counts as functional.
The subject of assay [19] is Staphylococcus aureus. The assay can be described thus: Antibacterial activity against methicillin-resistant Staphylococcus aureus NRS 198 assessed as reduction in bacterial growth measured after 18 to 24 hrs by broth microdilution method. The assay is classed as functional. The settings on record: time 18-24 hrs.
The subject of assay [20] is Staphylococcus aureus. Nature of the assay: Antibacterial activity against Staphylococcus aureus ATCC 29213 assessed as reduction in bacterial growth measured after 18 to 24 hrs by broth microdilution method. It counts as functional. The following applies: time 18-24 hrs.
Assay [21] deals with Enterococcus faecalis. Nature of the assay: Antibacterial activity against Enterococcus faecalis ATCC 35550 assessed as reduction in bacterial growth measured after 18 to 24 hrs by broth microdilution method. The assay is classed as functional. The following applies: time 18-24 hrs.
Assay [22] relates to Staphylococcus aureus. Nature of the assay: Antibacterial activity against methicillin-resistant Staphylococcus aureus NRS 191 assessed as reduction in bacterial growth measured after 18 to 24 hrs by broth microdilution method. It counts as functional. The following applies: time 18-24 hrs.
For assay [23], the system named is Staphylococcus aureus. Nature of the assay: Antibacterial activity against methicillin-resistant Staphylococcus aureus NRS 194 assessed as reduction in bacterial growth measured after 18 to 24 hrs by broth microdilution method. The assay is classed as functional. The following applies: time 18-24 hrs.
Assay [24] relates to Staphylococcus aureus. The assay can be described thus: Antibacterial activity against methicillin-resistant Staphylococcus aureus NRS 100 assessed as reduction in bacterial growth measured after 18 to 24 hrs by broth microdilution method. The following applies: time 18-24 hrs. It counts as functional.

≈ marks a conversion by molar mass, not a printed value. Calls of active or inactive are those of the source. No cut-off for these calls is given here.

Take `O=C(O)c1cccc(C(=O)Nc2c(C(c3ccccc3)c3ccccc3)cc(Cl)cc2C(c2ccccc2)c2ccccc2)c1`: the “inhibition (INH)” value in assay [1] is >50%; in assay [9], 95%; in assay [14], 96%. Also, the minimum inhibitory concentration (MIC) in assay [2] was 4 µg/mL (≈ 6.58 µM); in assay [3], 4 µg/mL (≈ 6.58 µM); in assay [4], 8 µg/mL (≈ 13.2 µM); in assay [5] it was > 64 µg/mL; in assay [6], > 64 µg/mL; in [7], 4 µg/mL (≈ 6.58 µM). Besides, the MIC in assay [10] is 4 µg/mL (≈ 6.58 µM); in assay [11], > 64 µg/mL; in assay [12] it was 4 µg/mL (≈ 6.58 µM); in assay [13] it was 4 µg/mL (≈ 6.58 µM); in assay [15] it was 2 µg/mL (≈ 3.29 µM); in [16] it was > 64 µg/mL. Also, the MIC in [17] came to 4 µg/mL (≈ 6.58 µM); in assay [18], 4 µg/mL (≈ 6.58 µM); in assay [19], 8 µg/mL (≈ 13.2 µM); in assay [20], 2 µg/mL (≈ 3.29 µM); in assay [21], 1 µg/mL (≈ 1.64 µM); in [22], 4 µg/mL (≈ 6.58 µM). Besides, the results for the MIC in assay [23] and in assay [24] were 8 µg/mL (≈ 13.2 µM) and 4 µg/mL (≈ 6.58 µM), respectively. Besides, in assay [8], the inhibition entry was “Active”.
